According to patent publication US11415579B2, “Assay for measuring a rate of reaction between a target and a ligand candidate” (Imperial College Innovations Ltd., priority 2016, dated 2022):

Columns and labels:
[1] = biological target: T1, Cdk2(S181C) (C177A) (Homo sapiens, UniProt P24941, C177A/S181C); assay: Kinetic thiol consumption assay with Cdk2 mutant S181C; format: binding; parameters: key to Rate enhancement, Cdk2 S181C: rate constant with Cdk2 ÷ rate constant with model thiol (fold); details: additional mutation C177A; for Rate constant with Cdk2 S181C: Protein: Cdk2, cysteine position S181C, in h^-1
T1 construct: poly-histidine; made in house; host or cells: E. coli
Procedure, shortened: (§1)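 His-tagged single-surface-cysteine Cdk2 mutants (C177A background) from E. coli, 5 μM in degassed phosphate buffer pH 8, pre-treated with immobilized TCEP beads. Fluorescence (ex/em 380/470 nm) read after 1 h at room temperature, normalized to DMSO/thiol-only control; first-order decay fits gave rate constants, divided by model-thiol rate for rate enhancement.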

[2] = biological target: T2, human cyclin-dependent kinase 2 (Cdk2) (Homo sapiens, UniProt P24941); assay: Kinetic thiol consumption assay with wild type Cdk2 (C177); format: binding; parameters: key to Rate enhancement, Cdk2 WT: k(Cdk2) divided by k(model thiol); Rate constant with Cdk2 (k(Cdk2)): unit not given here; details: for Rate constant with Cdk2 (k(Cdk2)): 500 μM ligand, 5 μM thiol, phosphate buffer pH 8; for Rate enhancement, Cdk2 WT: no additional mutations; for Rate constant with Cdk2 WT: Protein: Cdk2, cysteine position WT, in h^-1; for k(Cdk2)/k(Cdk2_mut) rate enhancement: model thiol Cdk2[C177A, F80C, K278C]; for k(Cdk2)/k(GSH) rate enhancement: model thiol glutathione
T2 construct: poly-histidine; made in house; host or cells: E. coli
Procedure, shortened: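 Rate enhancement: first-order decay constant with Cdk2 over that with a model thiol. Thiols (5 μM, degassed phosphate buffer pH 8, immobilized TCEP) were incubated with acrylamides at room temperature, and thiol consumption followed by fluorescence at 380/470 nm, normalized to DMSO control. Cdk2 was His-tagged, E. coli-expressed, with one surface cysteine (C177).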

[3] = Kinetic thiol consumption assay with model thiol glutathione; format: physicochemical; parameters: Rate constant with glutathione (k(GSH)): unit not given here; details: for Rate constant with glutathione (k(GSH)): 500 μM ligand, 5 μM thiol, phosphate buffer pH 8; for Rate constant with Glutathione: Protein: Glutathione, cysteine position NA, in h-1
Procedure, shortened: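 Rate constants for acrylamide reaction with 5 μM glutathione come from first-order exponential fits of normalized fluorescence decay (ex 380, em 470 nm). Reactions run in degassed phosphate buffer at pH 8 containing TCEP beads, room temperature.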

[4] = biological target: T3, Cdk2(H71C) (C177A) (Homo sapiens, UniProt P24941, C177A/H71C); assay: Kinetic thiol consumption assay with Cdk2 mutant H71C; format: binding; parameters: key to Rate enhancement, Cdk2 H71C: rate constant with Cdk2 ÷ rate constant with model thiol (fold); details: additional mutation C177A; for Rate constant with Cdk2 H71C: Protein: Cdk2, cysteine position H71C, in h^-1
T3 construct: poly-histidine; made in house; host or cells: E. coli
Procedure, shortened: as §1

[5] = biological target: T4, Cdk2[C177A, F80C, K278C] (Homo sapiens, UniProt P24941, C177A/F80C/K278C); assay: Kinetic thiol consumption assay with mutant Cdk2 as model thiol; format: binding; parameters: unit not given here; details: 500 μM ligand, 5 μM thiol, phosphate buffer pH 8
T4 construct: poly-histidine; made in house; host or cells: E. coli
Procedure, shortened: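 Model thiol: His-tagged human Cdk2 C177A/F80C/K278C (two engineered surface cysteines), E. coli-expressed, 5 μM in degassed phosphate buffer pH 8 with immobilized TCEP beads (2% v/v). Fluorescence (ex/em 380/470 nm) followed over time at room temperature, normalized to DMSO/thiol control. First-order decay fit gives rate constants.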

[6] = biological target: T5, Cdk2(C177A, F80C) (Homo sapiens, UniProt P24941, C177A/F80C); assay: Kinetic thiol consumption assay with Cdk2 mutant F80C, incl. kobs versus concentration (Kd, k2); format: binding; parameters: key to Rate enhancement, Cdk2 F80C: Cdk2 rate constant divided by model-thiol rate constant; details: additional mutation C177A; for Rate constant with Cdk2 F80C: Protein: Cdk2, cysteine position F80C, in h^-1
T5 construct: poly-histidine; made in house; host or cells: E. coli
Procedure, shortened: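 His-tagged Cdk2(C177A/F80C) from E. coli or model thiol, 5 μM in degassed phosphate buffer pH 8 with TCEP beads, reacted with acrylamide ligands; fluorescence (ex/em 380/470 nm) normalized to DMSO control and fitted to first-order decay for kobs. Kd and k2 obtained from hyperbolic fit of kobs versus ligand concentration.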

[7] = biological target: T6, Cdk2(S276C) (C177A) (Homo sapiens, UniProt P24941, C177A/S276C); assay: Kinetic thiol consumption assay with Cdk2 mutant S276C; format: binding; parameters: key to Rate enhancement, Cdk2 S276C: rate constant with Cdk2 ÷ rate constant with model thiol (fold); details: additional mutation C177A; for Rate constant with Cdk2 S276C: Protein: Cdk2, cysteine position S276C, in h^-1
T6 construct: poly-histidine; made in house; host or cells: E. coli
Procedure, shortened: as §1

[8] = biological target: T7, Cdk2(T182C) (C177A) (Homo sapiens, UniProt P24941, C177A/T182C); assay: Kinetic thiol consumption assay with Cdk2 mutant T182C; format: binding; parameters: key to Rate enhancement, Cdk2 T182C: rate constant with Cdk2 ÷ rate constant with model thiol (fold); details: additional mutation C177A; for Rate constant with Cdk2 T182C: Protein: Cdk2, cysteine position T182C, in h^-1
T7 construct: poly-histidine; made in house; host or cells: E. coli
Procedure, shortened: as §1

[9] = biological target: T8, Cdk2(R122C) (C177A) (Homo sapiens, UniProt P24941, C177A/R122C); assay: Kinetic thiol consumption assay with Cdk2 mutant R122C; format: binding; parameters: key to Rate enhancement, Cdk2 R122C: rate constant with Cdk2 ÷ rate constant with model thiol (fold); details: additional mutation C177A; for Rate constant with Cdk2 R122C: Protein: Cdk2, cysteine position R122C, in h-1
T8 construct: poly-histidine; made in house; host or cells: E. coli
Procedure, shortened: as §1

[10] = biological target: T9, Cdk2(N272C) (C177A) (Homo sapiens, UniProt P24941, C177A/N272C); assay: Kinetic thiol consumption assay with Cdk2 mutant N272C; format: binding; parameters: key to Rate enhancement, Cdk2 N272: rate constant with Cdk2 ÷ rate constant with model thiol (fold); details: for Rate enhancement, Cdk2 N272: Cdk2 N272, additional mutation C177A; for Rate constant with Cdk2 N272C: Protein: Cdk2, cysteine position N272C, additional mutation C177A, in h^-1
T9 construct: poly-histidine; made in house; host or cells: E. coli
Procedure, shortened: as §1

C=CC(=O)NCC1CCCN1S(=O)(=O)c1ccc(C)cc1 (centres unmarked) [CA-118]
Rate enhancement, Cdk2 S181C [1]: 4.792 | Rate constant with Cdk2 S181C [1]: 0.02877 | Rate constant with Cdk2 (k(Cdk2)) [2]: 0.00698 | Rate enhancement, Cdk2 WT [2]: 1.749 | Rate constant with Cdk2 WT [2]: 0.0105 | k(Cdk2)/k(Cdk2_mut) rate enhancement [2]: 1.682 | k(Cdk2)/k(GSH) rate enhancement [2]: 2.491 | Rate constant with glutathione (k(GSH)) [3]: 0.0028 | Rate constant with Glutathione [3]: 0.006004 | Rate enhancement, Cdk2 H71C [4]: 0.1972 | Rate constant with Cdk2 H71C [4]: 0.001184 | Rate constant with Cdk2[C177A, F80C, K278C] (k(Cdk2_mut)) [5]: 0.00415 | Rate enhancement, Cdk2 F80C [6]: 0.6003 | Rate constant with Cdk2 F80C [6]: 0.003604 | Rate enhancement, Cdk2 S276C [7]: 0.4087 | Rate constant with Cdk2 S276C [7]: 0.002454 | Rate enhancement, Cdk2 T182C [8]: 0 | Rate enhancement, Cdk2 R122C [9]: 0.3071 | Rate constant with Cdk2 R122C [9]: 0.001844 | Rate enhancement, Cdk2 N272 [10]: 61.33 | Rate constant with Cdk2 N272C [10]: 0.3682

C=CC(=O)N(C)C1CC(OCC)C12CCC2 (centres unmarked) [CA-048]
Rate enhancement, Cdk2 S181C [1]: 0.6029 | Rate constant with Cdk2 S181C [1]: 0.0114 | Rate constant with Cdk2 (k(Cdk2)) [2]: 0.01116 | Rate enhancement, Cdk2 WT [2]: 0.7118 | Rate constant with Cdk2 WT [2]: 0.01346 | k(Cdk2)/k(Cdk2_mut) rate enhancement [2]: 1.41 | k(Cdk2)/k(GSH) rate enhancement [2]: 0.8182 | Rate constant with glutathione (k(GSH)) [3]: 0.01364 | Rate constant with Glutathione [3]: 0.01891 | Rate enhancement, Cdk2 H71C [4]: 0.2331 | Rate constant with Cdk2 H71C [4]: 0.004408 | Rate constant with Cdk2[C177A, F80C, K278C] (k(Cdk2_mut)) [5]: 0.00791 | Rate enhancement, Cdk2 F80C [6]: 0.8022 | Rate constant with Cdk2 F80C [6]: 0.01517 | Rate enhancement, Cdk2 S276C [7]: 0.779 | Rate constant with Cdk2 S276C [7]: 0.01473 | Rate enhancement, Cdk2 T182C [8]: 2.645 | Rate constant with Cdk2 T182C [8]: 0.05001 | Rate enhancement, Cdk2 R122C [9]: 0.2023 | Rate constant with Cdk2 R122C [9]: 0.003826 | Rate enhancement, Cdk2 N272 [10]: 0.5442 | Rate constant with Cdk2 N272C [10]: 0.01029

C=CC(=O)N1CCN(C(=O)OC(C)(C)C)CC1 [CA-029]
Rate enhancement, Cdk2 S181C [1]: 0.3298 | Rate constant with Cdk2 S181C [1]: 0.006959 | Rate constant with Cdk2 (k(Cdk2)) [2]: 0.00892 | Rate enhancement, Cdk2 WT [2]: 0.4226 | Rate constant with Cdk2 WT [2]: 0.008917 | k(Cdk2)/k(Cdk2_mut) rate enhancement [2]: 1.45 | k(Cdk2)/k(GSH) rate enhancement [2]: 0.5196 | Rate constant with glutathione (k(GSH)) [3]: 0.01716 | Rate constant with Glutathione [3]: 0.0211 | Rate enhancement, Cdk2 H71C [4]: 0.1266 | Rate constant with Cdk2 H71C [4]: 0.002672 | Rate constant with Cdk2[C177A, F80C, K278C] (k(Cdk2_mut)) [5]: 0.00615 | Rate enhancement, Cdk2 F80C [6]: 0.1236 | Rate constant with Cdk2 F80C [6]: 0.002607 | Rate enhancement, Cdk2 S276C [7]: 0.3272 | Rate constant with Cdk2 S276C [7]: 0.006904 | Rate enhancement, Cdk2 T182C [8]: 1.766 | Rate constant with Cdk2 T182C [8]: 0.03726 | Rate enhancement, Cdk2 R122C [9]: 0.2033 | Rate constant with Cdk2 R122C [9]: 0.004289 | Rate enhancement, Cdk2 N272 [10]: 0.2719 | Rate constant with Cdk2 N272C [10]: 0.005738

C=CC(=O)NCCc1c(-c2ccccn2)[nH]c2ccccc12 [EL-1083]
Rate enhancement, Cdk2 S181C [1]: 0.1531 | Rate constant with Cdk2 S181C [1]: 0.001672 | Rate constant with Cdk2 (k(Cdk2)) [2]: 0.00098 | Rate enhancement, Cdk2 WT [2]: 0.08945 | Rate constant with Cdk2 WT [2]: 0.0009768 | k(Cdk2)/k(Cdk2_mut) rate enhancement [2]: 0.3446 | k(Cdk2)/k(GSH) rate enhancement [2]: 0.1583 | Rate constant with glutathione (k(GSH)) [3]: 0.00618 | Rate constant with Glutathione [3]: 0.01092 | Rate enhancement, Cdk2 H71C [4]: 0 | Rate constant with Cdk2[C177A, F80C, K278C] (k(Cdk2_mut)) [5]: 0.00284 | Rate enhancement, Cdk2 F80C [6]: 0 | Rate enhancement, Cdk2 S276C [7]: 0.5044 | Rate constant with Cdk2 S276C [7]: 0.005508 | Rate enhancement, Cdk2 T182C [8]: 0.9139 | Rate constant with Cdk2 T182C [8]: 0.00998 | Rate enhancement, Cdk2 R122C [9]: 0.05484 | Rate constant with Cdk2 R122C [9]: 0.0005988 | Rate enhancement, Cdk2 N272 [10]: 0.157 | Rate constant with Cdk2 N272C [10]: 0.001714

C=CC(=O)Nc1nc2cc3c(cc2s1)OC(F)(F)O3 [CA-142]
Rate enhancement, Cdk2 S181C [1]: 0.4029 | Rate constant with Cdk2 S181C [1]: 0.00817 | Rate constant with Cdk2 (k(Cdk2)) [2]: 0.03086 | Rate enhancement, Cdk2 WT [2]: 1.522 | Rate constant with Cdk2 WT [2]: 0.03086 | k(Cdk2)/k(Cdk2_mut) rate enhancement [2]: 1.361 | k(Cdk2)/k(GSH) rate enhancement [2]: 1.519 | Rate constant with glutathione (k(GSH)) [3]: 0.02031 | Rate constant with Glutathione [3]: 0.02028 | Rate enhancement, Cdk2 H71C [4]: 0.1797 | Rate constant with Cdk2 H71C [4]: 0.003644 | Rate constant with Cdk2[C177A, F80C, K278C] (k(Cdk2_mut)) [5]: 0.02268 | Rate enhancement, Cdk2 F80C [6]: 9.635 | Rate constant with Cdk2 F80C [6]: 0.1954 | Rate enhancement, Cdk2 S276C [7]: 3.68 | Rate constant with Cdk2 S276C [7]: 0.07463 | Rate enhancement, Cdk2 T182C [8]: 12.86 | Rate constant with Cdk2 T182C [8]: 0.2609 | Rate enhancement, Cdk2 R122C [9]: 0.1319 | Rate constant with Cdk2 R122C [9]: 0.002674 | Rate enhancement, Cdk2 N272 [10]: 0.3071 | Rate constant with Cdk2 N272C [10]: 0.006229
